Reference: paper PMC7283271, “ADP binding by the Culex quinquefasciatus mosquito D7 salivary protein enhances blood feeding on mammals” (Nature Communications, 2020)

Assays:
Type in all cases: binding
CxD7L1 [1] = target: T1, CxD7L1 (Culex quinquefasciatus, UniProt A0A1S4K3K8); assay: crystal structure ([…] Å) and ITC; design: gene D7L1; mature protein
Target sequence in this assay (A0A1S4K3K8 17-311): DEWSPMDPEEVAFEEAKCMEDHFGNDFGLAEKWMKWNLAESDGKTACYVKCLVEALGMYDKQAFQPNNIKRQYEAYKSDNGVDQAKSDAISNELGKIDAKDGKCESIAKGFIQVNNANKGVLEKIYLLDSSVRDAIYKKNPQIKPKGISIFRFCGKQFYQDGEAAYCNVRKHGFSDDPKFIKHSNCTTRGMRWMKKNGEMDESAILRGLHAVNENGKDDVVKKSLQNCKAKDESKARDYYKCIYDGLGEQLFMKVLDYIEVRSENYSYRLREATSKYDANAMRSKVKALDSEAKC

CxD7L2 = target: T2, CxD7L2 (Culex quinquefasciatus, UniProt B0X6Z1); assay: ITC
T2 construct: gene D7L2; full-length mature protein, C-terminal 6x-His, HEK293

CxD7L1 [2] = target: T1, CxD7L1; assay: ITC; design: gene D7L1; mature protein, C-terminal 6x-His, HEK293
Target sequence in this assay (A0A1S4K3K8 17-311 limits assumed): as the sequence (A0A1S4K3K8 17-311) above

T2 sequence (B0X6Z1 21-313 limits assumed): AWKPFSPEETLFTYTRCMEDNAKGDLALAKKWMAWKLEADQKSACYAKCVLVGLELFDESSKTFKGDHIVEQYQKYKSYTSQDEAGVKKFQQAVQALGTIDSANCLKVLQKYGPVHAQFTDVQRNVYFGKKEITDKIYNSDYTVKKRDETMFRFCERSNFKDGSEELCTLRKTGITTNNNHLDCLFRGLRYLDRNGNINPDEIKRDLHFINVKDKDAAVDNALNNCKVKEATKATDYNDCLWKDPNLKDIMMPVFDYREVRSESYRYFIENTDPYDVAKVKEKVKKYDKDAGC

Nc1ncnc2c1ncn2[C@@H]1O[C@H](COP(=O)(O)OP(=O)(O)O)[C@@H](O)[C@H]1O [ADP]
Kd (CxD7L1 [1]): 32.7 nM

CNC[C@H](O)c1ccc(O)c(O)c1 [Epinephrine]
Kd (CxD7L2): 226 nM

Nc1ncnc2c1ncn2[C@@H]1O[C@H](CO)[C@@H](O)[C@H]1O [Adenosine]
Kd (CxD7L1 [2]): 313 nM
